Data from the NIST ThermoML archive (doi:10.1021/je050020m).
Numbers after ± are expanded uncertainties.

Test: xn = mol fraction of the nth substance listed
Details: Liquid, Vibrating tube method

In the case of `CCCCCCCCCC` [decane] + O=C=O, the mass density (313.11 K, 20002 kPa, x2 = 0.9663) is reported as 840.48 ± 0.55 kg/m3, the mass density (313.11 K, 20018 kPa, x2 = 0.4536) is reported as 757.13 ± 0.54 kg/m3 and the mass density (313.11 K, 21015 kPa, x2 = 0.9663) is reported as 848.66 ± 0.55 kg/m3. For the same molecule, the mass density (313.11 K, 21018 kPa, x2 = 0.4536) was 758.18 ± 0.54 kg/m3, the mass density (313.11 K, 22006 kPa, x2 = 0.4536) was 759.18 ± 0.55 kg/m3 and the mass density (313.11 K, 22023 kPa, x2 = 0.9663) was 856.28 ± 0.54 kg/m3. It also gave a mass density (313.11 K, 23003 kPa, x2 = 0.4536) of 760.18 ± 0.55 kg/m3, a mass density (313.11 K, 23021 kPa, x2 = 0.9663) of 863.4 ± 0.53 kg/m3 and a mass density (313.11 K, 24023 kPa, x2 = 0.4536) of 761.23 ± 0.56 kg/m3. It also gave a mass density (313.11 K, 24063 kPa, x2 = 0.9663) of 870.36 ± 0.53 kg/m3, a mass density (313.11 K, 24976 kPa, x2 = 0.9663) of 876.18 ± 0.52 kg/m3 and a mass density (313.11 K, 25010 kPa, x2 = 0.4536) of 762.23 ± 0.58 kg/m3. It also gave a mass density (313.12 K, 12053 kPa, x2 = 0.8114) of 782.82 ± 0.67 kg/m3, a mass density (313.12 K, 13017 kPa, x2 = 0.8114) of 785.68 ± 0.46 kg/m3 and a mass density (313.12 K, 14021 kPa, x2 = 0.8114) of 788.54 ± 0.47 kg/m3. It also gave a mass density (313.12 K, 15103 kPa, x2 = 0.8114) of 791.51 ± 0.47 kg/m3, a mass density (313.12 K, 15990 kPa, x2 = 0.8114) of 793.84 ± 0.47 kg/m3 and a mass density (313.12 K, 16981 kPa, x2 = 0.8114) of 796.39 ± 0.48 kg/m3. For the same molecule, the mass density (313.12 K, 17993 kPa, x2 = 0.8114) was 798.92 ± 0.48 kg/m3, the mass density (313.12 K, 19038 kPa, x2 = 0.8114) was 801.45 ± 0.49 kg/m3 and the mass density (313.12 K, 20009 kPa, x2 = 0.8114) was 803.73 ± 0.49 kg/m3. For the same molecule, the mass density (313.12 K, 21018 kPa, x2 = 0.8114) was 806.06 ± 0.5 kg/m3, the mass density (313.12 K, 22020 kPa, x2 = 0.8114) was 808.29 ± 0.5 kg/m3 and the mass density (313.12 K, 22999 kPa, x2 = 0.8114) was 810.42 ± 0.5 kg/m3. The mass density (313.12 K, 24019 kPa, x2 = 0.8114) was 812.6 ± 0.51 kg/m3, the mass density (313.12 K, 25017 kPa, x2 = 0.8114) was 814.7 ± 0.61 kg/m3 and the mass density (323.04 K, 11016 kPa, x2 = 0.9663) was 580.54 ± 1.3 kg/m3. For the same molecule, the mass density (323.04 K, 12005 kPa, x2 = 0.8114) was 762.12 ± 0.77 kg/m3, the mass density (323.04 K, 12030 kPa, x2 = 0.9663) was 636.15 ± 1.1 kg/m3 and the mass density (323.04 K, 13009 kPa, x2 = 0.8114) was 765.56 ± 0.48 kg/m3. The mass density (323.04 K, 13015 kPa, x2 = 0.9663) was 672.02 ± 0.91 kg/m3, the mass density (323.04 K, 14007 kPa, x2 = 0.9663) was 698.83 ± 0.8 kg/m3 and the mass density (323.04 K, 14026 kPa, x2 = 0.8114) was 769 ± 0.48 kg/m3. It also gave a mass density (323.04 K, 15008 kPa, x2 = 0.8114) of 772.02 ± 0.49 kg/m3, a mass density (323.04 K, 15021 kPa, x2 = 0.9663) of 721.04 ± 0.72 kg/m3 and a mass density (323.04 K, 16018 kPa, x2 = 0.9663) of 739.12 ± 0.67 kg/m3. The mass density (323.04 K, 16046 kPa, x2 = 0.8114) was 775.13 ± 0.49 kg/m3, the mass density (323.04 K, 17018 kPa, x2 = 0.8114) was 777.99 ± 0.49 kg/m3 and the mass density (323.04 K, 17026 kPa, x2 = 0.9663) was 754.76 ± 0.64 kg/m3. The mass density (323.04 K, 18002 kPa, x2 = 0.8114) was 780.75 ± 0.49 kg/m3, the mass density (323.04 K, 18010 kPa, x2 = 0.9663) was 768.22 ± 0.62 kg/m3 and the mass density (323.04 K, 19001 kPa, x2 = 0.9663) was 780.23 ± 0.6 kg/m3. The mass density (323.04 K, 19025 kPa, x2 = 0.8114) was 783.58 ± 0.49 kg/m3, the mass density (323.04 K, 20025 kPa, x2 = 0.9663) was 791.43 ± 0.58 kg/m3 and the mass density (323.04 K, 20031 kPa, x2 = 0.8114) was 786.22 ± 0.49 kg/m3. The mass density (323.04 K, 21021 kPa, x2 = 0.9663) was 801.33 ± 0.57 kg/m3, the mass density (323.04 K, 21047 kPa, x2 = 0.8114) was 788.86 ± 0.5 kg/m3 and the mass density (323.04 K, 21988 kPa, x2 = 0.8114) was 791.16 ± 0.5 kg/m3. It also gave a mass density (323.04 K, 22023 kPa, x2 = 0.9663) of 810.55 ± 0.56 kg/m3, a mass density (323.04 K, 22999 kPa, x2 = 0.8114) of 793.66 ± 0.5 kg/m3 and a mass density (323.04 K, 23026 kPa, x2 = 0.9663) of 819.05 ± 0.55 kg/m3. For the same molecule, the mass density (323.04 K, 24016 kPa, x2 = 0.8114) was 796.11 ± 0.5 kg/m3, the mass density (323.04 K, 24036 kPa, x2 = 0.9663) was 827.07 ± 0.55 kg/m3 and the mass density (323.04 K, 25030 kPa, x2 = 0.9663) was 834.47 ± 0.54 kg/m3. It also gave a mass density (323.04 K, 25054 kPa, x2 = 0.8114) of 798.55 ± 0.51 kg/m3, a mass density (323.05 K, 1989 kPa, x2 = 0.0551) of 710.33 ± 0.55 kg/m3 and a mass density (323.05 K, 3015 kPa, x2 = 0.0551) of 711.28 ± 0.55 kg/m3. It also gave a mass density (323.05 K, 3984 kPa, x2 = 0.0551) of 712.18 ± 0.55 kg/m3, a mass density (323.05 K, 5002 kPa, x2 = 0.0551) of 713.14 ± 0.56 kg/m3 and a mass density (323.05 K, 6010 kPa, x2 = 0.0551) of 714.04 ± 0.56 kg/m3. For the same molecule, the mass density (323.05 K, 7043 kPa, x2 = 0.0551) was 714.97 ± 0.56 kg/m3, the mass density (323.05 K, 8018 kPa, x2 = 0.0551) was 715.86 ± 0.57 kg/m3 and the mass density (323.05 K, 9009 kPa, x2 = 0.0551) was 716.73 ± 0.57 kg/m3. The mass density (323.05 K, 10008 kPa, x2 = 0.0551) was 717.66 ± 0.58 kg/m3, the mass density (323.05 K, 11036 kPa, x2 = 0.0551) was 718.47 ± 0.58 kg/m3 and the mass density (323.05 K, 11995 kPa, x2 = 0.0551) was 719.35 ± 0.58 kg/m3. It also gave a mass density (323.05 K, 13035 kPa, x2 = 0.0551) of 720.16 ± 0.59 kg/m3.
